Measured values reported in US10870832B2, “Use of small molecules to enhance MAFA expression in pancreatic endocrine cells” (Janssen Biotech, Inc., priority 2014, dated 2020).

How the values were obtained:
Test in all cases: Kinase profiling of R428
SAPK4(h) = SAPK4(h) (Homo sapiens, UniProt O15264); assay type: biochemical; settings: 100 μM ATP, lower number = more robust inhibition
Method: (§1) The efficiency of the AXL inhibitor R428 for targeting different kinases was assessed by Kinase Profiling Services using 100 μM ATP concentration (EMD Millipore). R428 was tested at 1 and 10 μM. Table IV lists the kinases profiled along with the efficiency in targeting the kinases with a lower number indicating a more robust inhibition of a particular kinase.

IRAK4(h) = IRAK4(h) (Homo sapiens, UniProt Q9NWZ3); assay type: biochemical; settings: 100 μM ATP, lower number = more robust inhibition
Method: as §1

ROCK-1(h) = ROCK-1(h) (Homo sapiens, UniProt Q13464); assay type: biochemical; settings: 100 μM ATP, lower number = more robust inhibition
Method: as §1

ZIPK(h) = ZIPK(h) (Homo sapiens, UniProt O43293); assay type: biochemical; settings: 100 μM ATP, lower number = more robust inhibition
Sequence of ZIPK(h) (O43293 whole entry): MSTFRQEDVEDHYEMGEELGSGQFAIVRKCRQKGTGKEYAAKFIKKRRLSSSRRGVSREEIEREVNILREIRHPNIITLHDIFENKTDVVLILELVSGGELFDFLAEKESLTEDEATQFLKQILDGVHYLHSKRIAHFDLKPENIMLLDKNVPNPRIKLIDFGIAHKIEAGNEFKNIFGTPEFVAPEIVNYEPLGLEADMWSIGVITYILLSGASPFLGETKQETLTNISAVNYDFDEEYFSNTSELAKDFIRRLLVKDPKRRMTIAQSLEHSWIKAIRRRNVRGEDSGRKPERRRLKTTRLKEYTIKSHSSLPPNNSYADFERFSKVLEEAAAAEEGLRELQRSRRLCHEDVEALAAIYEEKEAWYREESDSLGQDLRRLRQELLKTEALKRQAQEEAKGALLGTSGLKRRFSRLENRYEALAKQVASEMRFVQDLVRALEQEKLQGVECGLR
Method: as §1

IGF-1R(h) = IGF-1R(h) (Homo sapiens, UniProt P08069); assay type: biochemical; settings: 100 μM ATP, lower number = more robust inhibition
Sequence of IGF-1R(h) (P08069 31-1367): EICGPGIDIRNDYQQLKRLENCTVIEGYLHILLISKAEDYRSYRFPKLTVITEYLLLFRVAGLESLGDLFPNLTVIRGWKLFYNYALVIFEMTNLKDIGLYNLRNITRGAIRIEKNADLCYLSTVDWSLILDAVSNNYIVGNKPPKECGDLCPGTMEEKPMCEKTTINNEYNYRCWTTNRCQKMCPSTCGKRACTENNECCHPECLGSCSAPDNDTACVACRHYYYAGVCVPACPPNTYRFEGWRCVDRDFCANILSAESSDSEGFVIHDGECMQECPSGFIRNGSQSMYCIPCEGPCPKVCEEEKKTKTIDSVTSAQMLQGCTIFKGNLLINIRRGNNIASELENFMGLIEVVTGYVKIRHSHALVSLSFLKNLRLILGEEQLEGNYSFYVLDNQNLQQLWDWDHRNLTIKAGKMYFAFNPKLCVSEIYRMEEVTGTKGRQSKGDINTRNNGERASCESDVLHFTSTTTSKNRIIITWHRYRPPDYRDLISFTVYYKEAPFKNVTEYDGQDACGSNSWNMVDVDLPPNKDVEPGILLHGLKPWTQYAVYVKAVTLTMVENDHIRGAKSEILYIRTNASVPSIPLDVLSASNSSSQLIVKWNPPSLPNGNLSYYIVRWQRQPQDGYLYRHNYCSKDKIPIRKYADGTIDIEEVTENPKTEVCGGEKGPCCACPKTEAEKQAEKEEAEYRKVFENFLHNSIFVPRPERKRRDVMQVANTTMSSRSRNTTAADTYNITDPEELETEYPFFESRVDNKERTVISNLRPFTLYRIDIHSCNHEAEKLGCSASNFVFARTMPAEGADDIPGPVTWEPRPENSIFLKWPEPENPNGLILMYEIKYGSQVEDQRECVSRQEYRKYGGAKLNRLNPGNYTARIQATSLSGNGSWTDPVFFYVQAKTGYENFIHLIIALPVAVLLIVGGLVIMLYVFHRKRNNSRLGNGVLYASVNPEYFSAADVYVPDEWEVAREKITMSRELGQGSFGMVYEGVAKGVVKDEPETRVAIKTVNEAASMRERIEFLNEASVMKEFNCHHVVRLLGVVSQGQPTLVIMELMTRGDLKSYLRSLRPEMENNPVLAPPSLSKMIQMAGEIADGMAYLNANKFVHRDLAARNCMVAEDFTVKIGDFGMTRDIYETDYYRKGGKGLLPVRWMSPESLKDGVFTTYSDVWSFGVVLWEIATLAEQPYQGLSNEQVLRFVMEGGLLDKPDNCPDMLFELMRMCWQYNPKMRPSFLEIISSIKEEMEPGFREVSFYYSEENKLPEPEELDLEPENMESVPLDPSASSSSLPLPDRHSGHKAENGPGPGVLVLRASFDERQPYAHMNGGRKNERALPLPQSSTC
Method: as §1

Eph A 2(h) = Eph A 2(h) (Homo sapiens, UniProt P29317); assay type: biochemical; settings: 100 μM ATP, lower number = more robust inhibition
Method: as §1

Rsk3(h) = Rsk3(h) (Homo sapiens, UniProt Q15349); assay type: biochemical; settings: for efficiency in targeting Rsk3(h): 100 μM ATP, lower number = more robust inhibition
Sequence of Rsk3(h) (Q15349 whole entry): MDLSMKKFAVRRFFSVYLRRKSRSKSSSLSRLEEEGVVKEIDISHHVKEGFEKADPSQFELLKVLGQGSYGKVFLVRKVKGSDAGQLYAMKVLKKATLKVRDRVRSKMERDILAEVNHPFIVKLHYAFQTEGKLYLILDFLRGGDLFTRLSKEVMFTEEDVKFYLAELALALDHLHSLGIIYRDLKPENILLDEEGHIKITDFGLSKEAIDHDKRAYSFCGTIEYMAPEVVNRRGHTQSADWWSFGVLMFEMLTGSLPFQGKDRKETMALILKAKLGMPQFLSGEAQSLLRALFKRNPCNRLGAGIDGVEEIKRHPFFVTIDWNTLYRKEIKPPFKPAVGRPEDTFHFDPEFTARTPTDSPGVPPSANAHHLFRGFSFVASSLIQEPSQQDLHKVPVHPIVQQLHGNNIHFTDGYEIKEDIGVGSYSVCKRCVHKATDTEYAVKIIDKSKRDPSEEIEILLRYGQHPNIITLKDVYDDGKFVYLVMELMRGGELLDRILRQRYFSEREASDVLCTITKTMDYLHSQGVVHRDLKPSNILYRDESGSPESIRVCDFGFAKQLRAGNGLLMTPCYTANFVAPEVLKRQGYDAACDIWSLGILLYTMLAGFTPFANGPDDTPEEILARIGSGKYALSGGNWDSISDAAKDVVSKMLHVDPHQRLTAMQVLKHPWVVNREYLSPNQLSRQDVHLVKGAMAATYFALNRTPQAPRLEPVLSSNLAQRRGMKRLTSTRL
Method: as §1

CK2α2(h) = CK2α2(h) (Homo sapiens, UniProt P19784); assay type: biochemical; settings: 100 μM ATP, lower number = more robust inhibition
Method: as §1

Aurora-B(h) = Aurora-B(h) (Homo sapiens, UniProt Q96GD4); assay type: biochemical; settings: for efficiency in targeting Aurora-B(h): 100 μM ATP, lower number = more robust inhibition
Sequence of Aurora-B(h) (Q96GD4 whole entry): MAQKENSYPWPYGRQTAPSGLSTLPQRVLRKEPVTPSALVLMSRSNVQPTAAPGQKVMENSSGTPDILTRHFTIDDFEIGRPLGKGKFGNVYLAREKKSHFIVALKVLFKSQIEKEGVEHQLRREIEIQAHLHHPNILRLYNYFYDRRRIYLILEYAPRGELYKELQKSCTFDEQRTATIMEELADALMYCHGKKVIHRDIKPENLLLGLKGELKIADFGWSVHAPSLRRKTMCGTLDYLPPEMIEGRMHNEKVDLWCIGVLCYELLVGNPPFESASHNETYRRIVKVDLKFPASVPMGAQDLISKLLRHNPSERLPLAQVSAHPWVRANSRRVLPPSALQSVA
Method: as §1

Plk1(h) = Plk1(h) (Homo sapiens, UniProt P53350); assay type: biochemical; settings: 100 μM ATP, lower number = more robust inhibition
Method: as §1

Met(h) = Met(h) (Homo sapiens, UniProt P08581); assay type: biochemical; settings: 100 μM ATP, lower number = more robust inhibition
Method: as §1

GSK3 a(h) = GSK3 a(h) (Homo sapiens, UniProt P49840); assay type: biochemical; settings: 100 μM ATP, lower number = more robust inhibition
Sequence of GSK3 a(h) (P49840 whole entry): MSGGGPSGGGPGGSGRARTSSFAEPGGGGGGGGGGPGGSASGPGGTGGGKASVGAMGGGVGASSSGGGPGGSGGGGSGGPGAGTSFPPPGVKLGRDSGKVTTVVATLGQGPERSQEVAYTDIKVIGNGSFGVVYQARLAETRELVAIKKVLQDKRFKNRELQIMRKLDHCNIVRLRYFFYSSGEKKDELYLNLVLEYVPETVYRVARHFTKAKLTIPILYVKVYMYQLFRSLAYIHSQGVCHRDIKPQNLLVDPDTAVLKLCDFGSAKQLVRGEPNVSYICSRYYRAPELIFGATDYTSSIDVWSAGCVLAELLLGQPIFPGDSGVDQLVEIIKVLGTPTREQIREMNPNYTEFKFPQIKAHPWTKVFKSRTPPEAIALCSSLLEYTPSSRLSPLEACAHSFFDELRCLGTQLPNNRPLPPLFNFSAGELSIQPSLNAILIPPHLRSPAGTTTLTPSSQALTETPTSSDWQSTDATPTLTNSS
Method: as §1

CaMKIδ(h) = CaMKIδ(h) (Homo sapiens, UniProt Q8IU85); assay type: biochemical; settings: 100 μM ATP, lower number = more robust inhibition
Method: as §1

CLK2(h) = CLK2(h) (Homo sapiens, UniProt P49760); assay type: biochemical; settings: 100 μM ATP, lower number = more robust inhibition
Sequence of CLK2(h) (P49760 whole entry): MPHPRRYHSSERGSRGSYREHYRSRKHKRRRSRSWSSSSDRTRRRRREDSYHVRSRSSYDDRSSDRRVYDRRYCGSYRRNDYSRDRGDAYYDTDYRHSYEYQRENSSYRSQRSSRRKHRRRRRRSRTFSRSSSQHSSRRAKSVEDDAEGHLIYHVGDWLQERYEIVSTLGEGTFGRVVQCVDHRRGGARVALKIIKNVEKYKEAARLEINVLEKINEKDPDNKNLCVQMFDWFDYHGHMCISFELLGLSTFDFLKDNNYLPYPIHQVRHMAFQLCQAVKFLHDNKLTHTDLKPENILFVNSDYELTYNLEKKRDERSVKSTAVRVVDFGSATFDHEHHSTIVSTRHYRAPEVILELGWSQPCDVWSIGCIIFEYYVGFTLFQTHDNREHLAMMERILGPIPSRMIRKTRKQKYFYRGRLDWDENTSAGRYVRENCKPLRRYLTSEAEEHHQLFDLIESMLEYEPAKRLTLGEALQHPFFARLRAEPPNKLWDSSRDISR
Method: as §1

Plk3(h) = Plk3(h) (Homo sapiens, UniProt Q9H4B4); assay type: biochemical; settings: 100 μM ATP, lower number = more robust inhibition
Method: as §1

CHK2(h) = CHK2(h) (Homo sapiens, UniProt O96017); assay type: biochemical; settings: 100 μM ATP, lower number = more robust inhibition
Sequence of CHK2(h) (O96017 whole entry): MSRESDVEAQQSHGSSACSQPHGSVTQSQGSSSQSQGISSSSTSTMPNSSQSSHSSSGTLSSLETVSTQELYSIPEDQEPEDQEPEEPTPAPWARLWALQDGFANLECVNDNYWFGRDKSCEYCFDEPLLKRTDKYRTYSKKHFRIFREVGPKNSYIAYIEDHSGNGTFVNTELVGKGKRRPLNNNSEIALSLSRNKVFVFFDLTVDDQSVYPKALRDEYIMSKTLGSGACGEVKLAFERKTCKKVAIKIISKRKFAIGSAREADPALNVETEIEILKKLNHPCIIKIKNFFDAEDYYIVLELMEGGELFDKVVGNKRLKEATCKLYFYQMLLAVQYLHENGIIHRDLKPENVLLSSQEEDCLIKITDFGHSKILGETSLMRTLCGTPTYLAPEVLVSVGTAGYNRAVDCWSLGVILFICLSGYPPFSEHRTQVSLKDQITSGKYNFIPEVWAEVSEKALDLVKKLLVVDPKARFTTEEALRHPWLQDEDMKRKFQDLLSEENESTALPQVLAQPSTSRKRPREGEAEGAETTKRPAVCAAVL
Method: as §1

PKA(h) = PKA(h) (Homo sapiens, UniProt P17612); assay type: biochemical; settings: 100 μM ATP, lower number = more robust inhibition
Method: as §1

CaMKIIIβ(h) = assay type: biochemical, human; settings: 100 μM ATP, lower number = more robust inhibition
Method: as §1

Sequence of SAPK4(h) (O15264 whole entry): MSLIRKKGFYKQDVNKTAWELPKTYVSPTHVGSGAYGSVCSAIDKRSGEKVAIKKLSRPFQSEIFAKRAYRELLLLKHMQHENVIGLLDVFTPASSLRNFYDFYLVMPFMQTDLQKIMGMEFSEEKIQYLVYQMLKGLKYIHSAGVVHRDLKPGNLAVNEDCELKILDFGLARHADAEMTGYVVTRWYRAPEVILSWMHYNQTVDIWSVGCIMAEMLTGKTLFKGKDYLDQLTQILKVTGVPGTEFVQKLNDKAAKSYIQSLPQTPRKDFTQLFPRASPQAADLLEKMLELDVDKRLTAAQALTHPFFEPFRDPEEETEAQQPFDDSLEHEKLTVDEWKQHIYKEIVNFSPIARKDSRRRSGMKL

With `Nc1nc(Nc2ccc3c(c2)CC[C@@H](N2CCCC2)CC3)nn1-c1cc2c(nn1)-c1ccccc1CCC2` [R428, 1H-1,2,4-Triazole-3,5-diamine, 1-(6,7-dihydro-5H-benzo[6,7]cyclohepta[1,2-c]pyridazin-3-yl) N3-[(7S)-6,7,8,9-tetrahydro-7-(1-pyrrolidinyl)-5H-benzocyclohepten-2-yl]-] the “efficiency in targeting SAPK4(h)” value (SAPK4(h); R428 @ 1 μM) was 94, the “efficiency in targeting SAPK4(h)” value (SAPK4(h); R428 @ 10 μM) was 91 and the “efficiency in targeting IRAK4(h)” value (IRAK4(h); R428 @ 1 μM) was 94. For the same compound, the “efficiency in targeting IRAK4(h)” value (IRAK4(h); R428 @ 10 μM) was 51, the “efficiency in targeting ROCK-1(h)” value (ROCK-1(h); R428 @ 1 μM) was 93 and the “efficiency in targeting ROCK-1(h)” value (ROCK-1(h); R428 @ 10 μM) was 41. The “efficiency in targeting ZIPK(h)” value (ZIPK(h); R428 @ 1 μM) was 97, the “efficiency in targeting ZIPK(h)” value (ZIPK(h); R428 @ 10 μM) was 46 and the “efficiency in targeting IGF-1R(h)” value (IGF-1R(h); R428 @ 1 μM) was 93. The “efficiency in targeting IGF-1R(h)” value (IGF-1R(h); R428 @ 10 μM) was 58, the “efficiency in targeting Eph A 2(h)” value (Eph A 2(h); R428 @ 1 μM) was 54 and the “efficiency in targeting Eph A 2(h)” value (Eph A 2(h); R428 @ 10 μM) was 12. The “efficiency in targeting Rsk3(h)” value (Rsk3(h); R428 @ 1 μM) was 2, the “efficiency in targeting Rsk3(h)” value (Rsk3(h); R428 @ 10 μM) was 1 and the “inhibition of RSK3 (in words)” value (Rsk3(h); at 1 and 10 μM) was “potently inhibits”. The “efficiency in targeting CK2α2(h)” value (CK2α2(h); R428 @ 1 μM) was 112, the “efficiency in targeting CK2α2(h)” value (CK2α2(h); R428 @ 10 μM) was 97 and the “efficiency in targeting Aurora-B(h)” value (Aurora-B(h); R428 @ 1 μM) was 1. For the same compound, the “efficiency in targeting Aurora-B(h)” value (Aurora-B(h); R428 @ 10 μM) was 0, the “inhibition of AuroraB (in words)” value (Aurora-B(h); at 1 and 10 μM) was “potently inhibits” and the “efficiency in targeting Plk1(h)” value (Plk1(h); R428 @ 1 μM) was 83. The “efficiency in targeting Plk1(h)” value (Plk1(h); R428 @ 10 μM) was 65, the “efficiency in targeting Met(h)” value (Met(h); R428 @ 1 μM) was 49 and the “efficiency in targeting Met(h)” value (Met(h); R428 @ 10 μM) was -1. For the same compound, the “efficiency in targeting GSK3 a(h)” value (GSK3 a(h); R428 @ 1 μM) was 95, the “efficiency in targeting GSK3 a(h)” value (GSK3 a(h); R428 @ 10 μM) was 105 and the “efficiency in targeting CaMKIδ(h)” value (CaMKIδ(h); R428 @ 1 μM) was 76. The “efficiency in targeting CaMKIδ(h)” value (CaMKIδ(h); R428 @ 10 μM) was 24, the “efficiency in targeting CLK2(h)” value (CLK2(h); R428 @ 1 μM) was 78 and the “efficiency in targeting CLK2(h)” value (CLK2(h); R428 @ 10 μM) was 28. For the same compound, the “efficiency in targeting Plk3(h)” value (Plk3(h); R428 @ 1 μM) was 101, the “efficiency in targeting Plk3(h)” value (Plk3(h); R428 @ 10 μM) was 81 and the “efficiency in targeting CHK2(h)” value (CHK2(h); R428 @ 1 μM) was 47. The “efficiency in targeting CHK2(h)” value (CHK2(h); R428 @ 10 μM) was 9, the “efficiency in targeting PKA(h)” value (PKA(h); R428 @ 1 μM) was 88 and the “efficiency in targeting PKA(h)” value (PKA(h); R428 @ 10 μM) was 35. The “efficiency in targeting CaMKIIIβ(h)” value (CaMKIIIβ(h); R428 @ 1 μM) was 76 and the “efficiency in targeting CaMKIIIβ(h)” value (CaMKIIIβ(h); R428 @ 10 μM) was 5.
